Values quoted from earlier work, collected in patent publication US20200289553A1, “Compositions and Methods for the Treatment of Metabolic Conditions” (REVEN IP HOLDCo LLC, priority 2017, published 2020).

Experiments:
[1] = rabbits
[2] = 241 osteoporotic women, 45 mg/day vitamin K2 and 150 mg elemental calcium, after two years
[3] = rats, 100 mg/kg body weight daily

In the case of `CC(C)=CCC/C(C)=C/CC/C(C)=C/CC/C(C)=C/CC1=C(C)C(=O)c2ccccc2C1=O` [vitamin K2], the atherosclerotic plaque progression ([1]; 1-10 mg/kg daily for 10 weeks) is listed as “inhibited the atherosclerotic plaque progression in the aorta and pulmonary arteries”, the “total cholesterol levels, lipid peroxidation, ester cholesterol deposition in the aorta and factor X activity in plasma” value ([1]; compared to the control group) is listed as “seen to reduce” and the “lumbar bone mineral density” value [2] is listed as “maintain lumbar bone mineral density”. For the same molecule, the fracture incidence ([2]; 30% in the control group) was 10% and the “calcium in kidneys and aorta induced by megadose of synthetic vitamin D” value [3] was “inhibited the increase in calcium in both kidneys and aorta”.
